From US8394971B2, “Indole derivatives as selective androgen receptor modulators (SARMS)” (Janssen Pharmaceutica N.V., priority 2004, dated 2013)

system: testosterone-enhanced ventral prostate and seminal vesicle weights in castrated male Sprague Dawley rats; test: Ventral Prostate and Seminal Vesicle Weight In Vivo Assay; parameters: species or system rat; details: immature castrated rats; once daily for five days, usually orally at 40 mg/kg, with testosterone propionate 2 mg/kg s.c.
Description: Immature (approximately 50 g) castrated male Sprague Dawley rats (Charles River) were treated once daily for five days with test compound (usually given orally at 40 mg/kg in a volume of 0.3 mL, in 30% cyclodextrin or 0.5% methylcellulose vehicle) and with testosterone propionate (given subcutaneously by injection at the nape of the neck at 2 mg/kg, in a volume of 0.1 mL in sesame oil). On the sixth day, the rats were euthanized by asphyxiation in carbon dioxide. Ventral prostates and seminal vesicles were removed and their wet weights determined.
A test compound was said to be “active” if the non weight adjusted prostate weight was ≦40 mg or the % Inhibition prostate weight, body weight adjusted was ≧40% @2 mg/day dosage.

SMILES	active / inactive (inhibition of testosterone-enhanced prostate weight)
CC(O)(C[S+]([O-])CC(F)(F)F)c1cc2cc([N+](=O)[O-])c(C(F)(F)F)cc2[nH]1 (mixture of isomers) [compound 205]	active
CC[S+]([O-])CC(C)(O)c1[nH]c2cc(C(F)(F)F)c(C#N)cc2c1C (mixture of isomers) [compound 245]	inactive
CC[S+]([O-])CC(C)(O)c1[nH]c2cc(C(F)(F)F)c(C#N)cc2c1C (mixture of isomers) [compound 319]	active
CCSCC(C)(O)c1cc2nc(C#N)ccc2[nH]1 (racemic) [compound 6]	inactive
CCSCC(C)(O)c1cc2cc([N+](=O)[O-])c(C(F)(F)F)cc2o1 (racemic) [compound 9]	inactive
CCSCC(C)(O)c1cc2cc(Cl)c(C(F)(F)F)cc2n1S(C)(=O)=O (racemic) [compound 146]	inactive
CCSCC(C)(O)c1cc2cc([N+](=O)[O-])c(C(F)(F)F)cc2[nH]1 (racemic) [compound 153]	inactive
CCSCC(O)(CC)c1cc2cc(Cl)c(C(F)(F)F)cc2[nH]1 (racemic) [compound 181]	active
CC(O)(CSCc1ccccn1)c1cc2cc([N+](=O)[O-])c(C(F)(F)F)cc2[nH]1 (racemic) [compound 204]	inactive
CCSCC(C)(O)c1cc2cc(C#N)c(Cl)cc2[nH]1 (racemic) [compound 224]	active
CCSCC(C)(O)c1cc2cc(C#N)c(C(F)(F)F)cc2n1CC(F)(F)F (racemic) [compound 237]	active
CCSCC(C)(O)c1cc2cc(C#N)c(C(F)(F)F)cc2n1CC (racemic) [compound 243]	active
CCSCC(C)(O)c1cc2cc(C#N)c(C(F)(F)F)cc2n1COC (racemic) [compound 322]	inactive
CCSCC(C)(O)c1cc2cc(C#N)c(C(F)(F)F)cc2n1CC#N (racemic) [compound 323]	inactive
CCSCC(C)(O)c1[nH]c2cc(C(F)(F)F)c(C#N)cc2c1I (racemic) [compound 324]	inactive
CCSCC(C)(O)c1[nH]c2cc(C(F)(F)F)c(C#N)cc2c1C#C[Si](C)(C)C (racemic) [compound 325]	inactive
C#Cc1c(C(C)(O)CSCC)[nH]c2cc(C(F)(F)F)c(C#N)cc12 (racemic) [compound 326]	inactive
CCSCC(O)(c1cc2cc(C#N)c(C(F)(F)F)cc2[nH]1)C(F)(F)F (racemic) [compound 327]	active
CC(O)(c1[nH]c2cc(C(F)(F)F)c(C#N)cc2c1I)C(F)(F)F (racemic) [compound 330]	active
CC(O)(c1cc2cc(C#N)c(C(F)(F)F)cc2n1CC#N)C(F)(F)F (racemic) [compound 331]	active
COCn1c(C(C)(O)C(F)(F)F)cc2cc(C#N)c(C(F)(F)F)cc21 (racemic) [compound 332]	active
CSCn1c(C(C)(O)C(F)(F)F)cc2cc(C#N)c(C(F)(F)F)cc21 (racemic) [compound 333]	active
CCSCC(C)(O)c1[nH]c2cc(C(F)(F)F)c(C#N)cc2c1CC (racemic) [compound 344]	active
CCSCC(C)(O)c1cc2cc(Cl)ccc2[nH]1 (racemic) [compound 353]	inactive
CCSCC(C)(O)c1cc2cc(C#N)ccc2[nH]1 (racemic) [compound 403]	inactive
CCS(=O)(=O)CC(C)(O)c1cc2cc(Cl)c(C(F)(F)F)cc2[nH]1 (racemic) [compound 404]	active
CCS(=O)(=O)CC(C)(O)c1cc2cc(C#N)c(C(F)(F)F)cc2[nH]1 (racemic) [compound 407]	inactive

SMILES	active / inactive (inhibition of testosterone-enhanced prostate weight)
CSCC(O)c1cc2cc(C#N)c(C(F)(F)F)cc2[nH]1 (racemic) [compound 408]	inactive
CCSCC(O)c1cc2cc(C#N)c(C(F)(F)F)cc2[nH]1 (racemic) [compound 410]	inactive
CCSCC(O)c1[nH]c2cc(C(F)(F)F)c(C#N)cc2c1I (racemic) [compound 411]	inactive
CCS(=O)(=O)CC(O)c1cc2cc(C#N)c(C(F)(F)F)cc2[nH]1 (racemic) [compound 412]	inactive
CCSCC(O)c1[nH]c2cc(C(F)(F)F)c(C#N)cc2c1Br (racemic) [compound 413]	inactive
CCSCC(C)(O)c1cc2cc(C)c(C(F)(F)F)cc2[nH]1 (racemic) [compound 414]	inactive
CCSCC(C)(O)c1cc2cc(C#N)c(C)c(I)c2[nH]1 (racemic) [compound 415]	inactive
CCSCC(C)(O)c1cc2cc(C#N)c(OC)cc2[nH]1 (racemic) [compound 445]	inactive
CCSCC(C)(O)c1cc2cc(C#N)c(C)cc2[nH]1 (racemic) [compound 446]	inactive
CCSCC(C)(O)c1cc2cc(Cl)c(C#N)cc2[nH]1 (single isomer, unassigned) [compound 228]	inactive
CCS(=O)(=O)CC(C)(O)c1cc2cc([N+](=O)[O-])c(C(F)(F)F)cc2n1C (single isomer, unassigned) [compound 232]	active
CCSCC(C)(O)c1[nH]c2cc(C(F)(F)F)c([N+](=O)[O-])cc2c1I (single isomer, unassigned) [compound 241]	inactive
CCSCC(C)(O)c1[nH]c2cc(C(F)(F)F)c([N+](=O)[O-])cc2c1I (single isomer, unassigned) [compound 244]	active
CCS(=O)(=O)CC(C)(O)c1cc2cc([N+](=O)[O-])c(C(F)(F)F)cc2n1C (single isomer, unassigned) [compound 250]	active
CCSCC(C)(O)c1c(C)c2cc(C#N)c(C(F)(F)F)cc2n1C (single isomer, unassigned) [compound 317]	inactive
CCSCC(C)(O)c1c(C)c2cc(C#N)c(C(F)(F)F)cc2n1C (single isomer, unassigned) [compound 318]	inactive
CC(O)(c1[nH]c2cc(C(F)(F)F)c(C#N)cc2c1Cl)C(F)(F)F (single isomer, unassigned) [compound 345]	active
CC(O)(c1[nH]c2cc(C(F)(F)F)c(C#N)cc2c1C#C[Si](C)(C)C)C(F)(F)F (single isomer, unassigned) [compound 347]	active
CCSCC(C)(O)c1[nH]c2cc(C(F)(F)F)c(C#N)cc2c1I (single isomer, unassigned) [compound 349]	active
CCc1c(C(C)(O)CS(=O)(=O)CC)[nH]c2cc(C(F)(F)F)c(C#N)cc12 (single isomer, unassigned) [compound 354]	active
CCS(=O)(=O)CC(C)(O)c1cc2cc(C#N)c(C(F)(F)F)cc2[nH]1 (single isomer, unassigned) [compound 397]	inactive
N#Cc1cc2cc(C3(O)CCSC3)[nH]c2cc1C(F)(F)F (centres unmarked) [Compound #15]	inactive
CC(O)(c1cc2cc(C#N)c(C(F)(F)F)cc2[nH]1)C(F)(F)F (centres unmarked) [Compound #329, 2-(2,2,2-Trifluoro-1-hydroxy-1-methyl-ethyl)-6-trifluoromethyl-1H-indole-5-carbonitrile]	active
CC(O)(c1cc2cc(C#N)c(C(F)(F)F)cc2[nH]1)C(F)(F)F (centres unmarked) [Compound #334, 2-(2,2,2-Trifluoro-1-hydroxy-1-methyl-ethyl)-6-trifluoromethyl-1H-indole-5-carbonitrile]	active
CC(O)(c1cc2cc(C#N)c(C(F)(F)F)cc2[nH]1)C(F)(F)F (centres unmarked) [Compound #335, 2-(2,2,2-Trifluoro-1-hydroxy-1-methyl-ethyl)-6-trifluoromethyl-1H-indole-5-carbonitrile]	active
CC(O)(COc1ccc(C#N)cc1)c1cc2cc(C#N)c(C(F)(F)F)cc2[nH]1 (centres unmarked) [Compound #426, 2-[2-(4-Cyano-phenoxy)-1-hydroxy-1-methyl-ethyl]-6-trifluoromethyl-1H-indole-5-carbonitrile]	inactive
